Laboratory results reported in US20090317335A1, “Hybrid Nanomaterials as Multimodal Imaging Contrast Agents” (priority 2006, published 2009).

Test: MR relaxivity (T1/T2) on 3.0 Tesla MRI scanner
Format: physicochemical
Method: Thermogravimetric analysis (TGA) was performed using a Shimadzu TGA-50 (Shimadzu Corp., Kyoto, Japan) equipped with a platinum pan and heated at a rate of 3° C./min under air. A Hitachi 4700 field emission scanning electron microscope (SEM; Hitachi Ltd., Tokyo, Japan) and a JEM 100CX-II transmission electron microscope (JEOL Ltd., Tokyo, Japan) were used to determine particle size and morphology. Scanning electron microscope (SEM) images of the nanoparticles were taken on glass substrate. A Cressington 108 Auto Sputter Coater (Cressington Scientific Instruments, Ltd., Watford, United Kingdom) equipped with an Au/Pd (80/20) target and M™-10 thickness monitor was used to coat the sample with approximately 5 nm of conductive layer before taking SEM images. Gd^3+ ion concentration was measured on a SpectraSpan7 Direct Current Plasma (DCP) Spectrometer (Applied Research Laboratories, La Brea, Calif., United States of America). […] T1 and T2 values were determined on a Bruker 3.0 Tesla full body Magnetic Resonance Imaging (MRI) scanner (Bruker BioSpin MRI GmbH, Ettlingen, Germany). […] Fluorescence microscope images were taken with a Zeiss Axiovert 100 TV Fluorescence Microscope (Carl Zeiss, Inc., Thornwood, N.Y., United States of America) using a FITC filter. T1 values were obtained using the standard inversion-recovery method, whereas T2 values were determined using spin-echo pulse sequences. […]

Substance | r1 (molecular complex, for comparison with 1) | longitudinal relaxivity (r1) (per mM of Gd^3+ (metal ion), 3.0 Tesla scanner, water or 0.1% Xanthan gum)
gadolinium (aminopropyltrimethoxysilyl) diethylenetriamine tetraacetate [Gd—Si-DTTA complex] | 6.8 s^−1 mM^−1 Gd^3+ | –
bis(aminopropyl-triethoxysilyl)diethylenetriamine pentaacetate gadodiamide [Gd—Si-DTPA complex] | – | 6.2 s⁻¹
